From ChEMBL document CHEMBL1128304, “The synthesis of N-hydroxy-N'-phenyloctanediamide and its inhibitory effect on proliferation of AXC rat prostate cancer cells” (1995)

Experiments:
[1] = system: Erythroleukemia cell line; test: Percent of murine erythroleukemia cells that became benzidine reactive after administration (2.5 uM); format: functional, Mus musculus
HL-60 = test: Percent of HL-60 cells (from human acute promyelocytic leukemia) to develop the ability to reduce nitroblue tetrazolium after administration (1 uM); format: functional; parameters: scale not given: the % may be the effect or the level left
T/5 = test: Tested for morphological alterations in T/5 cells after administration along with DMSO (0.1%); format: functional, cell-based; details: Rattus norvegicus

For `O=C(CCCCCCC(=O)Nc1ccccc1)NO` [VORINOSTAT], the Activity [1] was 70%, the Activity (HL-60) was 21% and the Activity (T/5) was “No morphological alterations observed”.
